Data reported in patent US11767320B2, “Bicyclic dione compounds as inhibitors of KRAS” (INCYTE CORPORATION, priority 2020, dated 2023).
pIC50: −log10 of the molar value.

Columns and labels:
KRAS G12C = KRAS G12C (Homo sapiens, UniProt P01116, G12C); test: GDP-GTP exchange assay (fluorescence based guanine nucleotide exchange, bodipy-GDP for GppNHp, SOS1); assay type: biochemical; conditions: bodipy-loaded KRAS G12C, 2 hours pre-incubation with inhibitor, read-out: G12C_exchange (KRAS_G12C exchange assay IC50)
Chain of KRAS G12C (P01116 1-188 isoform P01116-2 G12C): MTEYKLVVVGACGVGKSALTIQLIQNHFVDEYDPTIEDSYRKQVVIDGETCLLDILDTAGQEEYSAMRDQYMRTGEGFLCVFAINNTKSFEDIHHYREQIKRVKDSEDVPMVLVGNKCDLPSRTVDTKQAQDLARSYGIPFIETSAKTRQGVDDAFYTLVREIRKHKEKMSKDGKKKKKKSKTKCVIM
Experimental: The inhibitor potency of the exemplified compounds was determined in a fluorescence based guanine nucleotide exchange assay, which measures the exchange of bodipy-GDP (fluorescently labeled GDP) for GppNHp (Non-hydrolyzable GTP analog) to generate the active state of KRAS in the presence of SOS1 (guanine nucleotide exchange factor). Inhibitors were serially diluted in DMSO and a volume of 0.1 μL was transferred to the wells of a black low volume 384-well plate. 5 μL/well volume of bodipy-loaded KRAS G12C diluted to 5 nM in assay buffer (25 mM Hepes pH 7.5, 50 mM NaCl, 10 mM MgCl2 and 0.01% Brij-35) was added to the plate and pre-incubated with inhibitor for 2 hours at ambient temperature. Appropriate controls (enzyme with no inhibitor or with a G12C inhibitor (AMG-510)) were included on the plate. The exchange was initiated by the addition of a 5 μL/well volume containing 1 mM GppNHp and 300 nM SOS1 in assay buffer. The 10 μL/well reaction concentration of the bodipy-loaded KRAS G12C, GppNHp, and SOS1 were 5-25 nM, 500 uM, and 150 nM, respectively. The reaction plates were incubated at ambient temperature for 2 hours, a time estimated for complete GDP-GTP exchange in the absence of inhibitor. For the KRAS G12D and G12V mutants, similar guanine nucleotide exchange assays were used with 2.5 nM as final concentration for the bodipy loaded KRAS proteins and with 4 hours and 3 hours incubation after adding GppNHp-SOS1 mixture for G12D and G12V, respectively. A cyclic peptide described to selectively bind G12D mutant (Sakamoto et al., BBRC 484.3 (2017), 605-611) or internal compounds with confirmed binding were used as positive controls in the assay plates. Fluorescence intensities were measured on a PheraStar plate reader instrument (BMG Labtech) with excitation at 485 nm and emission at 520 nm.
Either GraphPad prism or XLfit was used to analyze the data. The IC50 values were derived by fitting the data to a four parameter logistic equation producing a sigmoidal dose-response curve with a variable Hill coefficient. Prism equation: Y=Bottom+(Top−Bottom)/(1+10^((Log IC50−X)*Hill slope)); XLfit equation: Y=(A+((B−A)/(1+((X/C)^D)))) where X is the logarithm of inhibitor concentration and Y is the response.

[1] = system: MIA PaCa-2 (KRAS G12C) cells; test: Cellular pERK HTRF assay; assay type: cell-based; conditions: Homo sapiens; MIA PaCa-2 cells, 4 hours, phospho-ERK 1/2 HTRF; read-out: G12C_pERK (KRAS_G12C pERK assay IC50)
Experimental: MIA PaCa-2 (KRAS G12C; ATCC® CRL-1420), A427 (KRAS G12D; ATCC® HTB53), HPAF-II (KRAS G12D; ATCC® CRL-1997) and NCI-H838 (KRAS WT; ATCC® CRL-5844) cells are purchased from ATCC and maintained in RPMI 1640 media supplemented with 10% FBS (Gibco/Life Technologies). The cells are plated at 5000 cells per well (8 uL) into Greiner 384-well low volume, flat-bottom, tissue culture treated white plates and incubated overnight at 37° C. 5% CO2. The next morning, test compound stock solutions are diluted in media at 3× the final concentration, and 4 uL are added to the cells. The plate is mixed by gentle rotation for 30 seconds (250 rpm) at room temperature. The cells are incubated with the KRAS G12C and G12D compounds for 4 hours or 2 hours respectively at 37° C., 5% CO2.
4 uL of 4× lysis buffer with blocking reagent (1:25) (Cisbio) are added to each well and plates are rotated gently (300 rpm) for 30 minutes at room temperature. 4 uL per well of Cisbio anti Phospho-ERK 1/2 d2 is mixed with anti Phospho-ERK 1/2 Cryptate (1:1) are added to each well, mixed by rotation and incubated overnight in the dark at room temperature. Plates are read on the Pherastar plate reader at 665 nm and 620 nm wavelengths. IC50 determination is performed by fitting the curve of inhibitor percent inhibition versus the log of the inhibitor concentration using the GraphPad Prism 7 software.

Row | pIC50 (KRAS G12C) | pIC50 [1] | Compound
1 | ≥ 7.00 | 6.00 to 7.00 | C=CC(=O)N1CC(Cn2c(=O)c(=O)n(-c3c(C(C)C)cccc3C(C)C)c3nc(-c4cccc(F)c4F)c(Cl)cc32)C1 [Example 5, 1-((1-acryloylazetidin-3-yl)methyl)-7-chloro-4-(2,6-diisopropylphenyl)-6-(2,3-difluorophenyl)-1,4-dihydropyrido[2,3-b]pyrazine-2,3-dione]
2 | ≥ 7.00 | 6.00 to 7.00 | C=CC(=O)N1CC(O)(Cn2c(=O)c(=O)n(-c3c(C(C)C)cccc3C(C)C)c3nc(-c4ccccc4F)c(Cl)cc32)C1 [Example 7, 1-((1-acryloyl-3-hydroxy-azetidin-3-yl)methyl)-7-chloro-4-(2,6-diisopropylphenyl)-6-(2-fluorophenyl)-1,4-dihydropyrido[2,3-b]pyrazine-2,3-dione]
3 | 6.00 to 7.00 | 6.00 to 7.00 | C=CC(=O)N1CC(Cn2c(=O)c(=O)n(-c3c(C(C)C)cccc3C(C)C)c3nc(-c4ccccc4F)c(Cl)cc32)(OC)C1 [Example 8, 1-((1-acryloyl-3-methoxy-azetidin-3-yl)methyl)-7-chloro-4-(2,6-diisopropylphenyl)-6-(2-fluorophenyl)-1,4-dihydropyrido[2,3-b]pyrazine-2,3-dione]
4 | 6.00 to 7.00 | 6.00 to 7.00 | C=CC(=O)N1CC(Cn2c(=O)c(=O)n(-c3c(C(C)C)cccc3C(C)C)c3nc(-c4cccc(F)c4F)c(Cl)cc32)(OC)C1 [Example 9, 1-((1-acryloyl-3-methoxy-azetidin-3-yl)methyl)-7-chloro-4-(2,6-diisopropylphenyl)-6-(2,3-difluorophenyl)-1,4-dihydropyrido[2,3-b]pyrazine-2,3-dione]
5 | ≥ 7.00 | 6.00 to 7.00 | C=CC(=O)N1CC(F)(Cn2c(=O)c(=O)n(-c3c(C(C)C)cccc3C(C)C)c3nc(-c4ccccc4F)c(Cl)cc32)C1 [Example 10, 1-((1-acryloyl-3-fluoro-azetidin-3-yl)methyl)-7-chloro-4-(2,6-diisopropylphenyl)-6-(2-fluorophenyl)-1,4-dihydropyrido[2,3-b]pyrazine-2,3-dione]
6 | ≥ 7.00 | 6.00 to 7.00 | C=CC(=O)N1CC(F)(Cn2c(=O)c(=O)n(-c3c(C(C)C)cccc3C(C)C)c3nc(-c4cccc5ccccc45)c(Cl)cc32)C1 [Example 11, 1-((1-acryloyl-3-fluoroazetidin-3-yl)methyl)-7-chloro-6-(1-naphthyl)-4-(2,6-diisopropylphenyl)-1,4-dihydropyrido[2,3-b]pyrazine-2,3-dione]
7 | ≥ 7.00 | ≥ 7.00 | C=CC(=O)N1CC(F)(Cn2c(=O)c(=O)n(-c3c(C(C)C)cccc3C(C)C)c3nc(-c4c(O)cccc4F)c(Cl)cc32)C1 [Example 12, 1-((1-acryloyl-3-fluoroazetidin-3-yl)methyl)-7-chloro-4-(2,6-diisopropylphenyl)-6-(2-fluoro-6-hydroxyphenyl)-1,4-dihydropyrido[2,3-b]pyrazine-2,3-dione]
8 | ≥ 7.00 | ≥ 7.00 | C=C(F)C(=O)N1CC(F)(Cn2c(=O)c(=O)n(-c3c(C(C)C)cccc3C(C)C)c3nc(-c4c(O)cccc4F)c(Cl)cc32)C1 [Example 13, 7-chloro-4-(2,6-diisopropylphenyl)-1-((3-fluoro-1-(2-fluoroacryloyl)azetidin-3-yl)methyl)-6-(2-fluoro-6-hydroxyphenyl)-1,4-dihydropyrido[2,3-b]pyrazine-2,3-dione]
9 | ≥ 7.00 | ≥ 7.00 | C=CC(=O)N1CC(F)(Cn2c(=O)c(=O)n(-c3c(C(C)C)cccc3C(C)C)c3nc(-c4cc(O)cc5ccccc45)c(Cl)cc32)C1 [Example 14, 1-((1-acryloyl-3-fluoroazetidin-3-yl)methyl)-7-chloro-4-(2,6-diisopropylphenyl)-6-(3-hydroxynaphthalen-1-yl)-1,4-dihydropyrido[2,3-b]pyrazine-2,3-dione]
10 | ≥ 7.00 | ≥ 7.00 | C=CC(=O)N1CC(F)(Cn2c(=O)c(=O)n(-c3c(C(C)C)cccc3C(C)C)c3nc(-c4c(N)cccc4F)c(Cl)cc32)C1 [Example 15, 1-((1-acryloyl-3-fluoroazetidin-3-yl)methyl)-6-(2-amino-6-fluorophenyl)-7-chloro-4-(2,6-diisopropylphenyl)-1,4-dihydropyrido[2,3-b]pyrazine-2,3-dione]
11 | ≥ 7.00 | ≥ 7.00 | C=CC(=O)N1CC(F)(Cn2c(=O)c(=O)n(-c3c(C(C)C)cccc3C(C)C)c3nc(-c4c(O)ccc(F)c4F)c(Cl)cc32)C1 [Example 16, 1-((1-acryloyl-3-fluoroazetidin-3-yl)methyl)-7-chloro-6-(2,3-difluoro-6-hydroxyphenyl)-4-(2,6-diisopropylphenyl)-1,4-dihydropyrido[2,3-b]pyrazine-2,3-dione]
12 | ≥ 7.00 | ≥ 7.00 | C=CC(=O)N1CC(F)(Cn2c(=O)c(=O)n(-c3c(C)ccnc3C(C)C)c3nc(-c4c(O)cccc4F)c(Cl)cc32)C1 [Example 17, 1-((1-acryloyl-3-fluoroazetidin-3-yl)methyl)-7-chloro-6-(2-fluoro-6-hydroxyphenyl)-4-(2-isopropyl-4-methylpyridin-3-yl)-1,4-dihydropyrido[2,3-b]pyrazine-2,3-dione]
13 | ≥ 7.00 | ≥ 7.00 | C=CC(=O)N1CC(F)(Cn2c(=O)c(=O)n(-c3c(C)ccnc3C(C)C)c3nc(-c4ccccc4F)c(Cl)cc32)C1 [Example 18, 1-((1-acryloyl-3-fluoroazetidin-3-yl)methyl)-7-chloro-6-(2-fluorophenyl)-4-(2-isopropyl-4-methylpyridin-3-yl)-1,4-dihydropyrido[2,3-b]pyrazine-2,3-dione]
14 | ≥ 7.00 | ≥ 7.00 | C=CC(=O)N1CC(F)(Cn2c(=O)c(=O)n(-c3c(C)ccnc3C(C)C)c3nc(-c4c(N)cccc4F)c(Cl)cc32)C1 [Example 19, 1-((1-acryloyl-3-fluoroazetidin-3-yl)methyl)-6-(2-amino-6-fluorophenyl)-7-chloro-4-(2-isopropyl-4-methylpyridin-3-yl)-1,4-dihydropyrido[2,3-b]pyrazine-2,3-dione]
15 | ≥ 7.00 |  | [2H]C([2H])(n1c(=O)c(=O)n(-c2c(C)ccnc2C(C)C)c2nc(-c3cccc4ccccc34)c(Cl)cc21)C1(F)CN(C(=O)C=C)C1 [Example 53, 1-((1-acryloyl-3-fluoroazetidin-3-yl)methyl-d2)-7-chloro-4-(2-isopropyl-4-methylpyridin-3-yl)-6-(naphthalen-1-yl)-1,4-dihydropyrido[2,3-b]pyrazine-2,3-dione]
16 | 6.00 to 7.00 |  | [2H]C([2H])(n1c(=O)c(=O)n(-c2c(C)ccnc2C(C)C)c2nc(-c3ccnc(C)c3Cl)c(Cl)cc21)C1(F)CN(C(=O)C=C)C1 [Example 54, 1-((1-acryloyl-3-fluoroazetidin-3-yl)methyl-d2)-7-chloro-6-(3-chloro-2-methylpyridin-4-yl)-4-(2-isopropyl-4-methylpyridin-3-yl)-1,4-dihydropyrido[2,3-b]pyrazine-2,3-dione]
17 | 6.00 to 7.00 |  | [2H]C([2H])(n1c(=O)c(=O)n(-c2c(C)ccnc2C(C)C)c2nc(-c3ccccc3-c3ccccc3)c(Cl)cc21)C1(F)CN(C(=O)C=C)C1 [Example 55, 6-([1,1′-biphenyl]-2-yl)-1-((1-acryloyl-3-fluoroazetidin-3-yl)methyl-d2)-7-chloro-4-(2-isopropyl-4-methylpyridin-3-yl)-1,4-dihydropyrido[2,3-b]pyrazine-2,3-dione]
